Assay results published in US9604979B2, “Pyrroloquinoline quinone alcohol adduct” (Mitsubishi Gas Chemical Company, Inc., priority 2011, dated 2017).

Legend:
[1] = Mixing with coenzyme Q10, color of the mixture; format: physicochemical; details: weight ratio 1:1
Escherichia coli JM109 = test: Effect on bacterial growth (viable bacteria count); format: cell-based; details: 8 mg sample + 100 μL E. coli JM109 solution (turbidity at 660 nm 0.57), 30 minutes room temperature, then 900 μL PBS, LB agar 30° C., colonies
Procedure: Escherichia coli JM109 was cultivated overnight in an LB medium at 30° C. The cultivated Escherichia coli JM109 was diluted with a phosphate buffer (PBS) having pH of 7.4 manufactured by GIBCO to obtain a solution 1 having turbidity at 660 nm of 0.57. To 8 mg of each sample shown in Table 2, 100 μL of the solution 1 was added at room temperature, and after 30 minutes, 900 μL of PBS was further added to obtain a solution 2. The solution 2 was planted in a petri dish with an LB agar medium and cultivated at 30° C., and a viable bacteria count was determined from the number of colonies in the solution 2.

[2] = High-performance liquid chromatography analysis: return of PQQ alcohol adduct to PQQ; format: physicochemical; details: 1 mg/ML adduct in phosphate buffer pH 7.4, left at room temperature for 2 hours, HPLC
Procedure: The high-performance liquid chromatography analysis of the PQQ alcohol adduct or the like was performed as follows.
A column: YMC-Pack ODS-TMS (5 μm) 150×4.6 mm I.D. was arranged in a high-performance liquid chromatography LC-20A manufactured by Shimadzu Corporation, and detection was performed at 260 nm using an eluent of 100 mM CH3COOH/100 mM CH3COONH4 (30/70, pH 5.1) and an absorption detector.
The PQQ methanol adduct obtained in Example 1 was added to a phosphate buffer (manufactured by Invitrogen pH 7.4) to obtain 1 mg/ML of a PQQ methanol adduct solution. After the PQQ methanol adduct solution was left at room temperature for 2 hours, the high-performance liquid chromatography analysis was performed. […] That is, the PQQ methanol adduct obtained in Example 1 returned to the original PQQ free body by the addition of the phosphate buffer and being left at room temperature for 2 hours.

[3] = Stability test in polypropylene container in oven (change of color); format: physicochemical
Procedure: It is to be noted that 100 μL of ODO, Nisshin Oillio was used as an edible fat and oil.

SMILES | Color of mixture with coenzyme Q10 [1] | Viable bacteria count (Escherichia coli JM109) | PQQ existing in the PQQ methanol adduct solution [2] | Observation result after 7 days ([3]; 30° C., container's cover opened, 5 mg) | Discoloration in the opened state (container's cover opened) ([3]; Table 5) | Stability in the sealed state of the container ([3]; Table 5)
O=C([O-])c1cc(C(=O)[O-])c2c(n1)C(=O)C(=O)c1cc(C(=O)O)[nH]c1-2.[Na+].[Na+] [PQQ disodium] | Brown |  |  |  |  | 
O=C(O)c1cc(C(=O)O)c2c(n1)C(=O)C(=O)c1cc(C(=O)O)[nH]c1-2 [PQQ free body, Pyrroloquinoline quinone] | Brown | 80 |  |  |  | 
COC1(O)C(=O)c2cc(C(=O)O)[nH]c2-c2c(C(=O)O)cc(C(=O)O)nc21 (stereo not drawn) [PQQ methanol adduct] | Yellow | 0 | 0.92 mg/mL | Red powder | immediately discolored to red | stable
